Results as given in patent US10781211B2, “Spirocycle compounds and methods of making and using same” (Lundbeck La Jolla Research Center, Inc., priority 2016, dated 2020).

Tests used:
MAGL [1] = target: T1, MAGL (Mus musculus (Mouse), UniProt O35678); assay: In vitro competitive activity-based protein profiling (mouse brain membrane proteome), MAGL band; format: biochemical; details: for inhibition at 1 µM: read-out: MAGL % Inh 1 μM (mouse)
Experimental: (§1) In Vitro Competitive Activity-Based Protein Profiling.
Proteomes (mouse brain membrane fraction or cell lysates) (50 μL, 1.0 mg/mL total protein concentration) were preincubated with varying concentrations of inhibitors at 37° C. After 30 min, FP-Rh (1.0 μL, 50 μM in DMSO) was added and the mixture was incubated for another 30 min at 37° C. Reactions were quenched with SDS loading buffer (50 μL-4X) and run on SDS-PAGE.

ABHD6 [2] = target: T2, ABHD6 (Mus musculus (Mouse), UniProt Q8R2Y0); assay: Mouse brain proteomes from inhibitor treated mice (oral gavage, sacrifice 4 h after administration, ABPP analysis), ABHD6; format: in vivo; details: 5 mg/kg oral gavage
T2 sequence (Q8R2Y0 whole entry): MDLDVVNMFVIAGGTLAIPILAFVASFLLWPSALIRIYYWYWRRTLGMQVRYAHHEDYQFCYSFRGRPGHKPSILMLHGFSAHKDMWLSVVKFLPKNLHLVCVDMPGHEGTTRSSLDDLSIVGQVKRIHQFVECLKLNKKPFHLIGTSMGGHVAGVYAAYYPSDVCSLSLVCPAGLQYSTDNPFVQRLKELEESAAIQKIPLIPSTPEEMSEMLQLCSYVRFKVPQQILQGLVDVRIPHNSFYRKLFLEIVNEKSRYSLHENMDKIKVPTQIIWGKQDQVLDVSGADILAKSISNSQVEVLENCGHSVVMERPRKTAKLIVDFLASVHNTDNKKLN
In short: (§2)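 Oral dosing of C57Bl/6J wild-type mice at 5 mg/kg, brain collection 4 h afterwards, then ABPP of brain proteomes to give % target inhibition.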

FAAH [3] = target: T3, FAAH (Mus musculus (Mouse), UniProt O08914); assay: Mouse brain proteomes from inhibitor treated mice (oral gavage, sacrifice 4 h after administration, ABPP analysis), FAAH; format: in vivo; details: 5 mg/kg oral gavage
T3 sequence (O08914 whole entry): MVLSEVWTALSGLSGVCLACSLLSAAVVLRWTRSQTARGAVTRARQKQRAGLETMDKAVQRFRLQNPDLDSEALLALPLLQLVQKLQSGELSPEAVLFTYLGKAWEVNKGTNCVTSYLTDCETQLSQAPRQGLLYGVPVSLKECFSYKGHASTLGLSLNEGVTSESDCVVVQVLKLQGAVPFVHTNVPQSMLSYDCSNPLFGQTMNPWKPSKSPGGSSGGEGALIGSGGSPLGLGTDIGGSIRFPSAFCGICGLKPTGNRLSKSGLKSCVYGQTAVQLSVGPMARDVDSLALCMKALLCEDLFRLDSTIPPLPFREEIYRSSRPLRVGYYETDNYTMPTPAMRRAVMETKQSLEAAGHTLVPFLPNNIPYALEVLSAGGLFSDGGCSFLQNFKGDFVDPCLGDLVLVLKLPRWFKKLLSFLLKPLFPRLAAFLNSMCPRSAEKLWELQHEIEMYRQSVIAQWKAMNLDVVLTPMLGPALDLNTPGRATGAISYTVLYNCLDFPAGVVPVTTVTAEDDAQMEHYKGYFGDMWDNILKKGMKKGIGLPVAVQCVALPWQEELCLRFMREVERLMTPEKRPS
In short: as §2

MAGL [4] = target: T1, MAGL; assay: Mouse brain proteomes from inhibitor treated mice (oral gavage, sacrifice 4 h after administration, ABPP analysis); format: in vivo; details: 5 mg/kg oral gavage
In short: as §2

FAAH [5] = target: T3, FAAH; assay: In vitro competitive activity-based protein profiling (mouse brain membrane proteome), FAAH band; format: biochemical; details: for inhibition at 1 µM: read-out: FAAH % Inh 1 μM (mouse)
Experimental: as §1
(§3) Proteomes (mouse brain membrane fraction or cell lysates) (50 μL, 1.0 mg/mL total protein concentration) were preincubated with varying concentrations of inhibitors at 37° C. After 30 min, FP-Rh (1.0 μL, 50 μM in DMSO) was added and the mixture was incubated for another 30 min at 37° C. Reactions were quenched with SDS loading buffer (50 μL-4X) and run on SDS-PAGE. Following gel imaging, serine hydrolase activity was determined by measuring fluorescent intensity of gel bands corresponding to MAGL, ABHD6 and FAAH using ImageJ 1.43 u software.

ABHD6 [6] = target: T2, ABHD6; assay: In vitro competitive activity-based protein profiling (mouse brain membrane proteome), ABHD6 band; format: biochemical; details: read-out: ABHD6 % Inh 1 μM (mouse)
Experimental: as §1, §3

MAGL [7] = target: MAGL (Homo sapiens (Human), UniProt Q99685); assay: In vitro competitive activity-based protein profiling (human prefrontal cortex or cell membrane fractions; hMAGL expressed in HEK293T cells); format: biochemical; details: human proteome
Chain of MAGL (Homo sapiens (Human), UniProt Q99685) (Q99685 whole entry): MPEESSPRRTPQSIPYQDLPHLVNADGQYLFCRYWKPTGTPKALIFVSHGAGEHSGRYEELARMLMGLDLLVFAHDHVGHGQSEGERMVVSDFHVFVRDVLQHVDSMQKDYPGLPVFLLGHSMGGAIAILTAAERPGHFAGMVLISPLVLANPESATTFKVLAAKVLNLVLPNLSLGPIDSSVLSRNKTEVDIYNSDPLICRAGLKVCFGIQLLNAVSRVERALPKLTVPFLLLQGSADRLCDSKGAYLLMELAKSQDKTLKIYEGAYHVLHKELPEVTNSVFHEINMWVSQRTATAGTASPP
Experimental: In Vitro Competitive Activity-Based Protein Profiling (Human).
Proteomes (human prefrontal cortex or cell membrane fractions) (50 μL, 1.0-2.0 mg/mL total protein concentration) were preincubated with varying concentrations of inhibitors at 37° C. After 30 min, FP-Rh or JW912 (1.0 μL, 50 μM in DMSO) was added and the mixture was incubated for another 30 min at room temperature. Reactions were quenched with SDS loading buffer (15 μL-4X) and run on SDS-PAGE.
Recombinant Expression of Human MAGL in HEK293T Cells.
Cell lysates were diluted with mock proteomes for use in competitive ABPP experiments.

T1 sequence (O35678 whole entry): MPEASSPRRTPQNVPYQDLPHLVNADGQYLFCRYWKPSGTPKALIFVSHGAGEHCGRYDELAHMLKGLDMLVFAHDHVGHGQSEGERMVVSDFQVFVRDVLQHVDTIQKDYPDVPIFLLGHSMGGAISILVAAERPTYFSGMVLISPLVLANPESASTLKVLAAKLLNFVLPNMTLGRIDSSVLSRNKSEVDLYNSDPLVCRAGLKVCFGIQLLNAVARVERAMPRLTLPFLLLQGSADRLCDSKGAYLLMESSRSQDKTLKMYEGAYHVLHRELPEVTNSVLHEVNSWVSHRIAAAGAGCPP

| Structure (SMILES) | IC50 (MAGL [1]) [nM] | ABHD6 % Inh 5 mg/kg (mouse) (ABHD6 [2]) | FAAH % Inh 5 mg/kg (mouse) (FAAH [3]) | MAGL % Inh 5 mg/kg (mouse) (MAGL [4]) | IC50 (FAAH [5]) [nM] | inhibition at 1 µM (ABHD6 [6]) [%] | inhibition at 1 µM (FAAH [5]) [%] | inhibition at 1 µM (MAGL [1]) [%] | IC50 (MAGL [7]) [nM] |
| --- | --- | --- | --- | --- | --- | --- | --- | --- | --- |
| CC(=O)N1CCCc2cccc(CN3CCC4(CCN(C(=O)OC(C(F)(F)F)C(F)(F)F)CC4)C3)c21 [Example 70, 1,1,1,3,3,3-Hexafluoropropan-2-yl 2-((1-acetyl-1,2,3,4-tetrahydroquinolin-8-yl)methyl)-2,8-diazaspiro[4.5]decane-8-carboxylate] | < 100 | ### (### is ≥ 75%) | # (# is < 25%) | ### (### is ≥ 75%) | > 1000 |  |  |  |  |
| O=C(O)C1CCN(c2cc(F)ccc2CN2CCCC23CCN(C(=O)OC(C(F)(F)F)C(F)(F)F)CC3)CC1 [Example 235] |  |  |  |  |  | < 25 | < 25 |  |  |
| CC1(C(=O)O)CCN(c2cc(CN3CCCC34CCN(C(=O)OC(C(F)(F)F)C(F)(F)F)CC4)cc(C(F)(F)F)c2)C1 (stereo not drawn) [Example 231] |  |  |  |  |  | < 25 | < 25 | > 75 | < 100 |
| O=C(O)C1CCCCN1c1cc(CN2CCCC23CCN(C(=O)OC(C(F)(F)F)C(F)(F)F)CC3)cc(C(F)(F)F)c1 (stereo not drawn) [Example 226] |  | # (# is < 25%) | # (# is < 25%) | ### (### is ≥ 75%) |  | < 25 | < 25 | > 75 | < 100 |
| CS(=O)(=O)C1CCN(c2cc(C(F)(F)F)ccc2CN2CCCC23CCN(C(=O)OC(C(F)(F)F)C(F)(F)F)CC3)CC1 [Example 267] |  | # (# is < 25%) | # (# is < 25%) | # (# is < 25%) |  |  |  |  |  |
| CC1(C(=O)O)CN(c2cc(CN3CCCC34CCN(C(=O)OC(C(F)(F)F)C(F)(F)F)CC4)cc(C(F)(F)F)c2)CCO1 (stereo not drawn) [Example 195, 4-(3-((8-(((1,1,1,3,3,3-hexafluoropropan-2-yl)oxy)carbonyl)-1,8-diazaspiro[4.5]decan-1-yl)methyl)-5-(trifluoromethyl)phenyl)-2-methylmorpholine-2-carboxylic acid] |  | # (# is < 25%) | # (# is < 25%) | # (# is < 25%) |  |  |  |  |  |
| O=C(OC(C(F)(F)F)C(F)(F)F)N1CCC2(CCCN2Cc2ccc(Cl)c(N3CCCC3)c2)CC1 [Example 132, 1,1,1,3,3,3-Hexafluoropropan-2-yl 1-(4-chloro-3-(pyrrolidin-1-yl)benzyl)-1,8-diazaspiro[4.5]decane-8-carboxylate] |  | # (# is < 25%) | # (# is < 25%) | ### (### is ≥ 75%) |  |  |  |  |  |
| O=C(OC(C(F)(F)F)C(F)(F)F)N1CCC2(CCCN2Cc2ccc(Cl)c(C(F)(F)F)c2)CC1 [Example 184, 1,1,1,3,3,3-Hexafluoropropan-2-yl 1-(4-chloro-3-(trifluoromethyl)benzyl)-1,8-diazaspiro[4.5]decane-8-carboxylate] |  | # (# is < 25%) | # (# is < 25%) | ### (### is ≥ 75%) |  |  |  |  |  |
| O=C(OC(C(F)(F)F)C(F)(F)F)N1CCC2(CCCN2Cc2ccc(Cl)cc2N2CCOCC2)CC1 [Example 77, 1,1,1,3,3,3-Hexafluoropropan-2-yl 1-(4-chloro-2-morpholinobenzyl)-1,8-diazaspiro[4.5]decane-8-carboxylate] |  | # (# is < 25%) | # (# is < 25%) | ### (### is ≥ 75%) |  |  |  |  |  |
| Cc1c(CN2CCCC23CCN(C(=O)OC(C(F)(F)F)C(F)(F)F)CC3)cccc1N1CCCC1 [Example 85, 1,1,1,3,3,3-Hexafluoropropan-2-yl 1-(2-methyl-3-(pyrrolidin-1-yl)benzyl)-1,8-diazaspiro[4.5]decane-8-carboxylate] |  | # (# is < 25%) | # (# is < 25%) | ### (### is ≥ 75%) |  |  |  |  |  |
| Cc1cc(CN2CCCC23CCN(C(=O)OC(C(F)(F)F)C(F)(F)F)CC3)ccc1C(F)(F)F [Example 177, 1,1,1,3,3,3-Hexafluoropropan-2-yl 1-(3-methyl-4-(trifluoromethyl)benzyl)-1,8-diazaspiro[4.5]decane-8-carboxylate] |  | # (# is < 25%) | # (# is < 25%) | ### (### is ≥ 75%) |  |  |  |  |  |
| CCc1cc(CN2CCCC23CCN(C(=O)OC(C(F)(F)F)C(F)(F)F)CC3)ccc1F [Example 150, 1,1,1,3,3,3-Hexafluoropropan-2-yl 1-(3-ethyl-4-fluorobenzyl)-1,8-diazaspiro[4.5]decane-8-carboxylate] |  | # (# is < 25%) | # (# is < 25%) | ### (### is ≥ 75%) |  |  |  |  |  |
| O=C(OC(C(F)(F)F)C(F)(F)F)N1CCC2(CCCN2Cc2ccc(Cl)c(OCCF)c2)CC1 [Example 28, 1,1,1,3,3,3-Hexafluoropropan-2-yl 1-(4-chloro-3-(2-fluoroethoxy)benzyl)-1,8-diazaspiro[4.5]decane-8-carboxylate] |  | # (# is < 25%) | # (# is < 25%) | ### (### is ≥ 75%) |  |  |  |  |  |
